Experimental data taken from patent EP0416604A2, “PAF-antagonists for the preparation of a medicament, useful for the treatment of heart diseases, caused by diminished beta-receptor-stimulation” (Dr. Karl Thomae GmbH, priority 1989, dated 1991).

Legend:
cardialen β-Rezeptoren = test: LV-dP/dtmax (cardiac contractility) response to isoprenaline in anaesthetised, despinalised rats before and after PAF infusion; format: in vivo, Ratten; parameters: Steigerung von LV-dP/dtmax durch Isoprenalin (Ansprechbarkeit der cardialen β-Rezeptoren): dose or concentration left out as unconfirmed; conditions: for Steigerung LV-dP/dtmax: despinalised rats, n=6, control before PAF
Description: Die neu aufgefundene Wirkung der PAF-Antagonisten wurde beispielsweise an B = 4-(2-Chlorphenyl)-9-methyl-2-[3-(4-morpholinyl)-3-propanon-1-yl]-6H-thieno[3.2-f][1.2.4]triazolo[4.3-a][1.4]-diazepin wie folgt geprüft: Männliche Ratten (Chbb:THOM, ca. 300 g) werden mit Hexobarbital-Natrium (150 mg/kg i.p.) narkotisiert. Die Trachea wird kannuliert und danach werden die Tiere despinalisiert. Die Tiere werden künstlich beatmet und mittels einem Heizkissen auf 37°C gehalten. Zur Messung des linksventrikulärem Drucks wird über die Arteria Carotis in den linken Ventrikel ein Millar Tipmanometer geschoben. Dieses Signal wird elektronisch differentiert und ist als LV-dP/dtmax ein Maß für die Kontraktionskraft des Herzes. Über einen Katheter in der anderen Arteria Carotis wird der arterielle Blutdruck gemessen. Die zu untersuchenden Substanzen werden intravenös über eine Kanüle in der Vena jugularis injiziert.
Isoprenalin (3-100 ng/kg) steigert dosisabhänig LV-dP/dtmax von 300 ± 90 bis 4450 ± 290 mm Hg/s (n=6). Nach einer 45-minütigen Infusion von PAF (50-100 ng/kg/min.) wurde wieder Isoprenalin (3 bis 100 ng/kg) injiziert. […] Dann wurde die Substanz B (10 mg/kg i.v.) verabreicht und nach 10 Minuten wurde wieder Isoprenalin injiziert.

Maus = conditions: p.o., acute toxicity; cited from earlier work

In the case of `Cc1nnc2n1-c1sc(CCC(=O)N3CCOCC3)cc1C(c1ccccc1Cl)=NC2` [Substanz B, 4-(2-Chlorphenyl)-9-methyl-2-[3-(4-morpholinyl)-3-propanon-1-yl]-6H-thieno[3.2-f][1.2.4]triazolo[4.3-a][1.4]diazepin], the “Steigerung von LV-dP/dtmax durch Isoprenalin (Ansprechbarkeit der cardialen β-Rezeptoren)” value (cardialen β-Rezeptoren; isoprenaline injected again after 10 min, responsiveness fully restored, rats) is listed as “nicht signifikant unterschiedlich von den Kontrollwerten” and the LD₅₀ (Maus) is listed as 4600 mg/kg.
For `CCCN(CCC)C(=O)C1Cc2sc3c(c2C1)C(c1ccccc1Cl)=NCc1nnc(C)n1-3` (stereo not drawn) [Substanz C], the LD₅₀ (Maus) is listed as 1700 mg/kg.
In the case of `Cc1nnc2n1-c1sc3c(c1C(c1ccccc1Cl)=NC2)CC(C(=O)N1CCOCC1)C3` (single isomer, unassigned; (-)) [Substanz A, (-)-6-(2-Chlorphenyl)-8,9-dihydro-1-methyl-8-[(4-morpholinyl)carbonyl]-4H,7H-cyclopenta[4.5]thieno[3,2-f][1.2.4]triazolo[4.3-a][1.4]diazepin], the LD₅₀ (Maus) is given as 1960 mg/kg.
In the case of `CC(C)NCC(O)c1ccc(O)c(O)c1` (stereo not drawn) [Isoprenalin], the “Steigerung LV-dP/dtmax” value (cardialen β-Rezeptoren; Isoprenalin 3 ng/kg i.v. (lower end of dose range 3-100 ng/kg)) is reported as 300 ± 90 mm Hg/s and the “Steigerung LV-dP/dtmax” value (cardialen β-Rezeptoren; Isoprenalin 100 ng/kg i.v. (upper end of dose range 3-100 ng/kg)) is reported as 4450 ± 290 mm Hg/s.
In the case of `CCCCCCCCCCCCCCCCOCC(COP(=O)([O-])OCC[N+](C)(C)C)OC(C)=O` (stereo not drawn) [PAF], the “Effekte von 3 und 10 ng/kg Isoprenalin (LV-dP/dtmax)” value (cardialen β-Rezeptoren; after 45 min infusion of PAF 50-100 ng/kg/min, rats) is reported as “nicht beeinflußt”, the “positiv inotrope Wirkung von dem Histamin-2 Agonist Dimaprit” value (cardialen β-Rezeptoren; effect of PAF on Dimaprit 1-10 mg/kg) is reported as “absolut nicht beeinflußt” and the “positiv inotrope Wirkung von dem Adenylcyclase Aktivator Forskolin” value (cardialen β-Rezeptoren; effect of PAF on Forskolin 3-20 µg/kg) is reported as “absolut nicht beeinflußt”.
